Experimental data: patent US4950686A, “Anti-mycoplasma agent” (Shionogi & Co., Ltd., priority 1986, dated 1990)

Tested on: Mycoplasma gallisepticum S6 (standard strain)
Assay: Mycoplasma gallisepticum air-sac infection method in chicken, strain S6
Type: in vivo, Mycoplasma gallisepticum; SPF chicken (white leghorn)
Summary of the method: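 Right air sac of 9-day-old SPF white leghorn chickens (water/feed withheld 1 day) inoculated with 24-48 h culture diluted ~100×; compound given once orally by cannula right after infection. At day 5, air-sac lesions scored 0-3 (index = right + 2×left), and organisms isolated from both air sacs and trachea.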

[1] = 50 mg/kg × once oral, 5 mg/ml sol. b, inoculum 6.3 × 10^4
[2] = 100 mg/kg × once oral, 10 mg/ml sol. b, inoculum 1.2 × 10^6
[3] = 100 mg/kg × once oral, 10 mg/ml sol. b, inoculum 6.3 × 10^4
[4] = 200 mg/kg × once oral, 20 mg/ml sol. a, inoculum 3.1 × 10^5
[5] = 200 mg/kg × once oral, 20 mg/ml sol. c, inoculum 3.1 × 10^5

O=c1cccccc1O [Tropolone, tropolone]
4: Change of air-sac, right: - (chickens) [3]
8: Change of air-sac, left: - (chickens) [2] | Change of air-sac, right: - (chickens) [2]
0.4: Index of Disease (50 mg/kg × once oral, 5 mg/ml sol. b, inoculum 6.3 × 10^4, range 0-9.0) | Index of Isolation (50 mg/kg × once oral, 5 mg/ml sol. b, inoculum 6.3 × 10^4, trachea ND, range 0-6.0)
5: Change of air-sac, left: - (chickens) [1] | Change of air-sac, left: - (chickens) [3] | Change of air-sac, left: - (chickens) [4] | Change of air-sac, right: - (chickens) [4] | Change of air-sac, left: - (chickens) [5] | Change of air-sac, right: - (chickens) [5]
0: Change of air-sac, left: + (chickens) [1] | Change of air-sac, left: ++ (chickens) [1] | Change of air-sac, left: +++ (chickens) [1] | Change of air-sac, right: ++ (chickens) [1] | Change of air-sac, right: +++ (chickens) [1] | Isolation, L (left air-sac) [1] | Change of air-sac, left: + (chickens) [2] | Change of air-sac, left: ++ (chickens) [2] | Change of air-sac, left: +++ (chickens) [2] | Change of air-sac, right: + (chickens) [2] | Change of air-sac, right: ++ (chickens) [2] | Change of air-sac, right: +++ (chickens) [2] | Isolation, L (left air-sac) [2] | Isolation, R (right air-sac) [2] | Isolation, T (trachea) [2] | Mycoplasma Isolated Chickens [2] | Index of Isolation (100 mg/kg × once oral, 10 mg/ml sol. b, inoculum 1.2 × 10^6, range 0-6.0) | Index of Disease (100 mg/kg × once oral, 10 mg/ml sol. b, inoculum 1.2 × 10^6, range 0-9.0) | Change of air-sac, left: + (chickens) [3] | Change of air-sac, left: ++ (chickens) [3] | Change of air-sac, left: +++ (chickens) [3] | Change of air-sac, right: ++ (chickens) [3] | Change of air-sac, right: +++ (chickens) [3] | Isolation, L (left air-sac) [3] | Isolation, R (right air-sac) [3] | Mycoplasma Isolated Chickens [3] | Index of Isolation (100 mg/kg × once oral, 10 mg/ml sol. b, inoculum 6.3 × 10^4, trachea ND, range 0-6.0) | Change of air-sac, left: + (chickens) [4] | Change of air-sac, left: ++ (chickens) [4] | Change of air-sac, left: +++ (chickens) [4] | Change of air-sac, right: + (chickens) [4] | Change of air-sac, right: ++ (chickens) [4] | Change of air-sac, right: +++ (chickens) [4] | Isolation, L (left air-sac) [4] | Isolation, T (trachea) [4] | Index of Disease (200 mg/kg × once oral, 20 mg/ml sol. a, inoculum 3.1 × 10^5, range 0-9.0) | Change of air-sac, left: + (chickens) [5] | Change of air-sac, left: ++ (chickens) [5] | Change of air-sac, left: +++ (chickens) [5] | Change of air-sac, right: + (chickens) [5] | Change of air-sac, right: ++ (chickens) [5] | Change of air-sac, right: +++ (chickens) [5] | Isolation, L (left air-sac) [5] | Isolation, R (right air-sac) [5] | Isolation, T (trachea) [5] | Mycoplasma Isolated Chickens [5] | Index of Isolation (200 mg/kg × once oral, 20 mg/ml sol. c, inoculum 3.1 × 10^5, range 0-6.0) | Index of Disease (200 mg/kg × once oral, 20 mg/ml sol. c, inoculum 3.1 × 10^5, range 0-9.0)
3: Change of air-sac, right: - (chickens) [1]
2: Change of air-sac, right: + (chickens) [1] | Isolation, R (right air-sac) [1] | Mycoplasma Isolated Chickens [1]
1: Change of air-sac, right: + (chickens) [3] | Isolation, R (right air-sac) [4] | Mycoplasma Isolated Chickens [4]
0.2: Index of Disease (100 mg/kg × once oral, 10 mg/ml sol. b, inoculum 6.3 × 10^4, range 0-9.0) | Index of Isolation (200 mg/kg × once oral, 20 mg/ml sol. a, inoculum 3.1 × 10^5, range 0-6.0)
